# Laboratory results published in US9302999B2, “Substituted triazoles as herbicides” (E. I. DU PONT DE NEMOURS AND COMPANY, priority 2012, dated 2016).
# Columns and labels:
# Type in all cases: in vivo
# [1] = test system: crabgrass, large (large crabgrass, Digitaria sanguinalis); assay: Test A pre-/postemergence: crabgrass, large; conditions: for Crabgrass, Large plant response rating: Postemergence; for Plant response rating, Crabgrass, Large: Preemergence
# How it was run: (§1)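 Rating scale 0–100 (100 = complete control), visual, ~10 days after application in the greenhouse. Applications: preemergence directed soil spray; postemergence at 1–2 leaves.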
# [2] = test system: foxtail, giant (giant foxtail, Setaria faberii); assay: Test A pre-/postemergence: foxtail, giant; conditions: for Foxtail, Giant plant response rating: Postemergence; for Plant response rating, Foxtail, Giant: Preemergence
# How it was run: as §1
# [3] = test system: velvetleaf (Abutilon theophrasti); assay: Test A pre-/postemergence: velvetleaf; conditions: for Velvetleaf plant response rating: Postemergence; for Plant response rating, Velvetleaf: Preemergence
# How it was run: as §1
# [4] = test system: corn (Zea mays); assay: Test A pre-/postemergence: corn; conditions: for Corn plant response rating: Postemergence; for Plant response rating, Corn: Preemergence
# How it was run: as §1
# [5] = test system: rice (Oryza sativa); assay: Test C flooded paddy test: rice; conditions: scale 0 to 100 (0 no effect, 100 complete control)
# How it was run: (§2)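 2-leaf stage plants; pots flooded 3 cm above soil; compound applied into paddy water, depth maintained. Greenhouse 13–15 d. Visual rating vs controls, 0–100 (0 = no effect, 100 = complete control); dash = no result.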
# [6] = test system: barnyardgrass (Echinochloa crus-galli); assay: Test A pre-/postemergence: barnyardgrass; conditions: for Barnyardgrass plant response rating: Postemergence; for Plant response rating, Barnyardgrass: Preemergence
# How it was run: as §1
# [7] = test system: morningglory (Ipomoea spp.); assay: Test A pre-/postemergence: morningglory; conditions: for Morningglory plant response rating: Postemergence; for Plant response rating, Morningglory: Preemergence
# How it was run: as §1
# [8] = test system: sedge, umbrella (small-flower umbrella sedge, Cyperus difformis); assay: Test C flooded paddy test: sedge, umbrella; conditions: scale 0 to 100 (0 no effect, 100 complete control)
# How it was run: as §2
# [9] = test system: pigweed (Amaranthus retroflexus); assay: Test A pre-/postemergence: pigweed; conditions: for Pigweed plant response rating: Postemergence; for Plant response rating, Pigweed: Preemergence
# How it was run: as §1
# [10] = test system: ducksalad (Heteranthera limosa); assay: Test C flooded paddy test: ducksalad; conditions: scale 0 to 100 (0 no effect, 100 complete control)
# How it was run: as §2
# [11] = test system: wheat (Triticum aestivum); assay: Test A pre-/postemergence: wheat; conditions: for Wheat plant response rating: Postemergence; for Plant response rating, Wheat: Preemergence
# How it was run: as §1
# [12] = test system: barnyardgrass (Echinochloa crus-galli); assay: Test C flooded paddy test: barnyardgrass; conditions: scale 0 to 100 (0 no effect, 100 complete control)
# How it was run: as §2
# [13] = 125 g ai/ha, 0 to 100 scale, 0 is no effect, 100 is complete control
# [14] = 500 g ai/ha, visual rating on 0 to 100 scale (0 no effect, 100 complete control), approximately ten days
# [15] = 125 g ai/ha, 0 to 100 scale (0 no effect, 100 complete control)
# [16] = 500 g ai/ha, 0 to 100 scale, 0 is no effect, 100 is complete control
# [17] = Flood (flooded paddy test), 62 g ai/ha, visual rating after 13 to 15 days
# [18] = Flood (flooded paddy test), 125 g ai/ha, visual rating after 13 to 15 days
# [19] = Flood (flooded paddy test), 250 g ai/ha, visual rating after 13 to 15 days
structure (smiles),measurement,setting,value
Cc1nn(-c2ccccn2)nc1C(=O)c1cccc(C(F)(F)F)c1 [Compound 60],"Crabgrass, Large plant response rating",[1]; [13],0
same,"Crabgrass, Large plant response rating",[1]; [14],10
same,"Plant response rating, Crabgrass, Large",[1]; [15],0
same,"Plant response rating, Crabgrass, Large",[1]; [16],0
same,"Foxtail, Giant plant response rating",[2]; [13],0
same,"Foxtail, Giant plant response rating",[2]; [14],0
same,"Plant response rating, Foxtail, Giant",[2]; [15],0
same,"Plant response rating, Foxtail, Giant",[2]; [16],0
same,Velvetleaf plant response rating,[3]; [13],0
same,Velvetleaf plant response rating,[3]; [14],0
same,"Plant response rating, Velvetleaf",[3]; [15],0
same,"Plant response rating, Velvetleaf",[3]; [16],0
same,Corn plant response rating,[4]; [13],0
same,Corn plant response rating,[4]; [14],10
same,"Plant response rating, Corn",[4]; [15],0
same,"Plant response rating, Corn",[4]; [16],0
same,"Plant response rating, Rice",[5]; [17],0
same,"Plant response rating, Rice",[5]; [18],0
same,"Plant response rating, Rice",[5]; [19],0
same,"Plant response rating, Rice","[5]; Flood, 31 g ai/ha",0
same,Barnyardgrass plant response rating,[6]; [13],0
same,Barnyardgrass plant response rating,[6]; [14],10
same,"Plant response rating, Barnyardgrass",[6]; [15],0
same,"Plant response rating, Barnyardgrass",[6]; [16],0
same,Morningglory plant response rating,[7]; [13],0
same,Morningglory plant response rating,[7]; [14],0
same,"Plant response rating, Morningglory",[7]; [15],0
same,"Plant response rating, Morningglory",[7]; [16],0
same,"Plant response rating, Sedge, Umbrella",[8]; [17],0
same,"Plant response rating, Sedge, Umbrella",[8]; [18],0
same,"Plant response rating, Sedge, Umbrella",[8]; [19],0
same,"Plant response rating, Sedge, Umbrella","[8]; Flood, 31 g ai/ha",0
same,Pigweed plant response rating,[9]; [13],0
same,Pigweed plant response rating,[9]; [14],10
same,"Plant response rating, Pigweed",[9]; [15],0
same,"Plant response rating, Pigweed",[9]; [16],0
same,"Plant response rating, Ducksalad",[10]; [17],0
same,"Plant response rating, Ducksalad",[10]; [18],0
same,"Plant response rating, Ducksalad",[10]; [19],0
same,"Plant response rating, Ducksalad","[10]; Flood, 31 g ai/ha",0
same,Wheat plant response rating,[11]; [13],0
same,Wheat plant response rating,[11]; [14],0
same,"Plant response rating, Wheat",[11]; [15],0
same,"Plant response rating, Wheat",[11]; [16],0
same,"Plant response rating, Barnyardgrass",[12]; [17],0
same,"Plant response rating, Barnyardgrass",[12]; [18],0
same,"Plant response rating, Barnyardgrass",[12]; [19],0
same,"Plant response rating, Barnyardgrass","[12]; Flood, 31 g ai/ha",0
Cc1nn(-c2cccc(C(F)(F)F)c2)nc1Oc1cc(C(F)(F)F)nn1C [Compound 64],"Crabgrass, Large plant response rating",[1]; [13],0
same,"Crabgrass, Large plant response rating",[1]; [14],0
same,"Plant response rating, Crabgrass, Large",[1]; [15],0
same,"Plant response rating, Crabgrass, Large",[1]; [16],0
same,"Foxtail, Giant plant response rating",[2]; [13],0
same,"Foxtail, Giant plant response rating",[2]; [14],0
same,"Plant response rating, Foxtail, Giant",[2]; [15],0
same,"Plant response rating, Foxtail, Giant",[2]; [16],0
same,Velvetleaf plant response rating,[3]; [13],0
same,Velvetleaf plant response rating,[3]; [14],0
same,"Plant response rating, Velvetleaf",[3]; [15],0
same,"Plant response rating, Velvetleaf",[3]; [16],0
same,Corn plant response rating,[4]; [13],0
same,Corn plant response rating,[4]; [14],0
same,"Plant response rating, Corn",[4]; [15],0
same,"Plant response rating, Corn",[4]; [16],0
same,"Plant response rating, Rice",[5]; [17],0
same,"Plant response rating, Rice",[5]; [18],0
same,"Plant response rating, Rice",[5]; [19],0
same,"Plant response rating, Rice","[5]; Flood, 31 g ai/ha",0
same,Barnyardgrass plant response rating,[6]; [13],0
same,Barnyardgrass plant response rating,[6]; [14],0
same,"Plant response rating, Barnyardgrass",[6]; [15],0
same,"Plant response rating, Barnyardgrass",[6]; [16],0
same,Morningglory plant response rating,[7]; [13],0
same,Morningglory plant response rating,[7]; [14],0
same,"Plant response rating, Morningglory",[7]; [15],0
same,"Plant response rating, Morningglory",[7]; [16],0
same,"Plant response rating, Sedge, Umbrella",[8]; [17],0
same,"Plant response rating, Sedge, Umbrella",[8]; [18],0
same,"Plant response rating, Sedge, Umbrella",[8]; [19],0
same,"Plant response rating, Sedge, Umbrella","[8]; Flood, 31 g ai/ha",0
same,Pigweed plant response rating,[9]; [13],0
same,Pigweed plant response rating,[9]; [14],0
same,"Plant response rating, Pigweed",[9]; [15],0
same,"Plant response rating, Pigweed",[9]; [16],0
same,"Plant response rating, Ducksalad",[10]; [17],0
same,"Plant response rating, Ducksalad",[10]; [18],0
same,"Plant response rating, Ducksalad",[10]; [19],0
same,"Plant response rating, Ducksalad","[10]; Flood, 31 g ai/ha",0
same,Wheat plant response rating,[11]; [13],0
same,Wheat plant response rating,[11]; [14],0
same,"Plant response rating, Wheat",[11]; [15],0
same,"Plant response rating, Wheat",[11]; [16],0
same,"Plant response rating, Barnyardgrass",[12]; [17],0
same,"Plant response rating, Barnyardgrass",[12]; [18],0
same,"Plant response rating, Barnyardgrass",[12]; [19],0
same,"Plant response rating, Barnyardgrass","[12]; Flood, 31 g ai/ha",0
